Patent US20180140578A1, “METHODS AND COMPOSITIONS FOR THE DIAGNOSIS AND SELECTIVE TREATMENT OF CANCER” (Board of Regents of the University of Texas System, priority 2016, published 2018)
Where two headings read alike, the source gives them in different places.

Columns and labels:
RBM39-Nluc = molecular target: T1, RBM39-Nluc (Homo sapiens, UniProt Q14498+Q66K64); test: RBM39-Nluc degradation by Nano-Glo luciferase assay; assay type: cell-based; details: H1155 RBM39-Nluc cells; read-out: decrease in RBM39-Nluc activity (IC50)
T1 construct: Homology directed repair facilitates tagging of endogenous RBM39 by AID, 3xFLAG, AcGFP, or Nanoluciferase; endogenous in cells; host or cells: H1155 RBM39-Nluc knock-in cells
Description: NanoLuc was knocked-in to the 3-prime end of the RBM39 gene using the procedure described above yielding H1155 RBM39-Nluc cells. […] Luminescence was recorded by EnVision multimode plate reader (Perkin Elmer). IC50 was determined with GraphPad Prism using baseline correction (by normalizing to DMSO control), the asymmetric (five parameter) equation and least squares fit.

[1] = tested on: RBM39 in DCAF15−/− H1155 cells; test: RBM39 degradation in DCAF15−/− cells (western blotting); assay type: cell-based, human
Description: (§1) Proteins were resolved on SDS-PAGE and transferred to 0.5 μm nitrocellulose membranes. Membranes were blocked in 5% milk TBST for 30 min, and then anti-RBM39 antibodies (HPA001591, Sigma-Aldrich) were added in 5% milk (1:5000) and incubated on a shaker overnight at 4° C. After three 5 min washes with TBST, membranes were incubated with HRP-conjugated goat anti-rabbit secondary antibody (Bio-Rad) for 2 hr at room temperature. After three 5 min washes with TBST, membranes were developed with ECL (enhanced chemiluminescence) substrates.
(§2) Two independent guide RNAs targeting DDB1, DDA1, DCAF15 were cloned into PX459. 0.2 million H1155 RBM39-AcGFP cells were transfected with PX459 sgRNA constructs and selected with 2 μg/ml puromycin to enrich for transfected cells. […] Cells were then trypsinized and the expression of RBM39-AGFP was quantified with flow cytometry. H1155 cells transfected with DCAF15 guide RNA were sparsely plated on 10 cm^2 plates and clones were isolated. Genomic DNA sequence flanking the cut site were amplified and sequenced to identify DCAF15−/− clones.

DCAF15−/− H1155 cells = test: Cell viability assay, DCAF15−/− cells; assay type: cell-based, human; details: at concentrations as high as 50 μM
Description: 12-point dose responses were performed on 96-well assay plates with cell plating (1500-4000 cell per well) on day 1, compound addition on day 2, and survival measurement on day 5. Compounds were diluted in DMSO before adding to the cells. Final DMSO concentration was 0.5%. Cell survival assay was performed using CellTiter-Glo Luminescent Cell Viability Assay kit (Promega) that measures cellular ATP content. Luminescence was recorded by EnVison multimode plate reader (Perkin Elmer). IC50 was determined with GraphPad Prism using baseline correction (by normalizing to DMSO control), the asymmetric (five parameter) equation and least squares fit.
as §2

H125 = test: IC50 assay, NSCLC cell lines (Cell Titer Glo, total ATP); assay type: cell-based; details: Homo sapiens
Description: (§3) Cells were plated at ˜15% confluence in a media comprising 5% concentration of fetal bovine serum supplemented with RPMI, which included 2 mM L-Glutamine in a 96 well dish. […] Following three days of incubation in a 5% CO2 incubator, the total ATP in each well was quantified using Cell Titer Glo (Promega). […] The solid lines represent the medians.

H2172 = test: as above; assay type: cell-based; details: Homo sapiens
Description: as §3

H720 = test: as above; assay type: cell-based; details: Homo sapiens
Description: as §3

H1770 = test: as above; assay type: cell-based; details: Homo sapiens
Description: as §3

RBM39 = molecular target: T2, RBM39 (Homo sapiens, UniProt Q14498+Q66K64); test: RBM39 degradation in cells (western blotting); assay type: cell-based; details: HCT-116 cells; dose dependent, evident as early as two hours after treatment
T2 construct: triggers the degradation of RBM39 in parental HCT-116 cells; endogenous in cells; host or cells: HCT-116
Description: as §1

[2] = tested on: tumors derived from parental HCT-116 cells; details: IV 25 mg/kg for 8 days; immune deficient mice; cited from earlier work
HCC78 and H1373 = test: 3 day viability assay, U2AF1 mutant lung cancer cell lines; assay type: cell-based, human
Text: HCC78 and H1373 non-small cell lung cancer cell lines harbor a heterozygous mutations (C to T) in U2AF1 leading to a Serine to Phenylalanine mutation at position 34. FIG. 19 depicts Sanger sequencing of a RT-PCR product from both cell lines. […] Thus, mutations in splicing factor U2AF1 can be used as a biomarker for treating cancer, in a DCAF15 independent manner or together with the DCAF15 biomarker.

[3] = molecular target: T3, RBM39-3xFLAG G268V with CUL4-DCAF15 complex (Homo sapiens, UniProt Q14498+Q66K64, G268V); test: In vitro formation of complex in lysates, G268V; assay type: binding; details: in the presence of 10 μM of indisulam
T3 construct: lysate derived from parental cells, RBM39-3xFLAG cells, or RBM39 G268V-3xFLAG cells; endogenous in cells; host or cells: HCT-116 RBM39 G268V-3xFLAG cells (treated cells in A91; lysates in A95)
Description: First, we reconstituted formation of the RBM39-CUL4-DCAF15 complex in vitro (FIG. 4, panel A).
Anti-Flag M2 antibody (Sigma-Aldrich) was coupled to Dynabeads M-270 epoxy beads (Life Technologies) at the ratio of 10 μg of antibody/mg beads. […] Frozen cells were then pulverized in the a cryomill (Retsch) with one 25 mm steel ball and five cycles of three min at 25 Hz with intermittent cooling in liquid nitrogen. […] The lysates were centrifuged at 8000 g for 5 min at 4° C. 12 mg of conjugated Anti-Flag magnetic beads were mixed with clarified lysates for 5 min at 4° C. on a rotating platform, followed by three washes with IP buffer. Bound proteins were eluted with 1 mg/ml 3xFLAG peptide, followed by SDS-PAGE on a 10% Bis Tris gel. After brief electrophoresis, bands containing all the proteins were cut with clean blades. For western blotting of co-immunoprecipitated proteins, anti-DDA1 (ProteinTech, 14995-1-AP, 1:1000), anti-DDB1 (Abcam, ab109027, 1;10000), anti-CUL4A (Cell Signaling, 2699, 1:1000), anti-CUL4B (ProteinTech, 12916-1-AP, 1:1000) were used.

Compound: NS(=O)(=O)c1ccc(S(=O)(=O)Nc2cccc3c(Cl)c[nH]c23)cc1 [Indisulam, indisulam]
- DC50 (RBM39-Nluc): 360 nM
- RBM39 degradation in response to indisulam [1]: failed to degrade RBM39
- sensitivity of DCAF15−/− cells (DCAF15−/− H1155 cells): insensitive
- IC50 (H125; NCI-H125, read-out: Indisulam IC50 (log 10) (converted), U2AF1 WT): 10.8 µM
- IC50 (H125; NCI-H125, read-out: Indisulam IC50, U2AF1 WT): 10.8 µM
- IC50 (H2172; NCI-H2172, read-out: Indisulam IC50 (log 10) (converted), U2AF1 WT): 20.5 µM
- IC50 (H2172; NCI-H2172, read-out: Indisulam IC50, U2AF1 WT): 20.5 µM
- IC50 (H720; read-out: Indisulam IC50 (log 10) (converted), U2AF1 WT): 1790 nM
- IC50 (H720; read-out: Indisulam IC50, U2AF1 WT): 1790 nM
- IC50 (H1770; NCI-H1770, read-out: Indisulam IC50 (log 10) (converted), U2AF1 WT): 16.2 µM
- IC50 (H1770; NCI-H1770, read-out: Indisulam IC50, U2AF1 WT): 16.2 µM
- amount of RBM39 protein (RBM39): reduced
- tumor response (previously shown) [2]: regression
- sensitivity of cancer cell lines harboring a mutation in U2AF1 (HCC78 and H1373): sensitive
- co-purification of RBM39-3xFLAG G268V with CUL4-DCAF15 complex [3]: did not co-purify
